Measurements from PMC9157191, “The ex vivo pharmacology of HIV-1 antiretrovirals differs between macaques and humans” (iScience, 2022).

Experiments:
[1] = Drug concentrations in human ecto-cervical tissue explants (LC-MS/MS); details: human ecto-cervical explants; harvesting schedule of the assay
[2] = Drug concentrations in Rhesus macaque ecto-cervical tissue explants (LC-MS/MS); type: in vitro ADME, Rhesus macaque (Macaca mulatta); details: NHP ecto-cervical explants; harvesting schedule of the assay
[3] = Drug concentrations in Rhesus macaque colorectal tissue explants (LC-MS/MS); type: in vitro ADME, Rhesus macaque (Macaca mulatta); details: for AUC3h–15d / Cmax: Rh. macaque colorectal explants, intracellular
[4] = Drug concentrations in Rhesus macaque vaginal tissue explants (LC-MS/MS); type: in vitro ADME, Rhesus macaque (Macaca mulatta); details: for AUC3h–15d / Cmax: Rh. macaque vaginal explants, intracellular
[5] = Drug concentrations in human colorectal tissue explants (LC-MS/MS); type: in vitro ADME; details: for AUC3h-15d / Cmax: Human colorectal explants, intracellular
RT-SHIV [6] = assay: tissue or blood; type: cell-based; details: for p27 AUC3-15: Rhesus macaque colorectal explants
HIV-1YU.2 = assay: microbe, parasite or virus in culture; type: cell-based; details: Human colorectal explants
HIV-1YU.2 M184V = assay: microbe, parasite or virus in culture; type: cell-based; details: Human colorectal explants
SIVmac32H [7] = assay: microbe, parasite or virus in culture; type: cell-based; details: for p27 AUC3-15: Rhesus macaque cervical explants
SIVmac32H K65RM184V [8] = assay: microbe, parasite or virus in culture; type: cell-based; details: for p27 AUC3-15: Rhesus macaque colorectal explants
SIVmac32H [9] = assay: microbe, parasite or virus in culture; type: cell-based; details: for p27 AUC3-15: Rhesus macaque vaginal explants
SIVmac32H [10] = assay: microbe, parasite or virus in culture; type: cell-based; details: for p27 AUC3-15: Rhesus macaque colorectal explants
[11] = tested on: HIV-1YU.2 L313T/I321V and V314T/I321V; type: cell-based
SIVmac32H K65RM184V [12] = assay: microbe, parasite or virus in culture; type: cell-based; details: for p27 AUC3-15: Rhesus macaque vaginal explants
HIV-1BaL [13] = assay: microbe, parasite or virus in culture; type: cell-based; details: Human cervical explants
HIV-1/SIV/SHIV isolates = type: cell-based
HIV-1YU.2 K65R = assay: microbe, parasite or virus in culture; type: cell-based; details: Human colorectal explants
HIV-1BaL [14] = assay: microbe, parasite or virus in culture; type: cell-based; details: Human colorectal explants
RT-SHIV [15] = assay: tissue or blood; type: cell-based; details: for p27 AUC3-15: Rhesus macaque vaginal explants
HIV-1YU.2 K65RM184V = assay: microbe, parasite or virus in culture; type: cell-based; details: Human colorectal explants;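 as to p24 AUC3-15: high arm above the IC50 and low arm below the IC50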
SIVmac32H K65RM184V [16] = assay: microbe, parasite or virus in culture; type: cell-based; details: for p27 AUC3-15: Rhesus macaque cervical explants
[17] = Comb. gel, High [ ]: TFV 70 µM + MVC […]
[18] = Comb. gel, Low [ ]: TFV 7 µM + MVC […]
[19] = Single gel, High [ ]: TFV 70 µM
[20] = NHP colorectal explants, day 15
[21] = high concentration: TFV 70 µM, MVC […], or TFV 70 µM + MVC […]
[22] = low concentration: TFV 7 µM, MVC […], or TFV 7 µM + MVC […]

CC(Cn1cnc2c(N)ncnc21)OCP(=O)(O)OP(=O)(O)OP(=O)(O)O (stereo in doubt) [TFVdp]
TFVdp detection [1]: neither detected
TFVdp detection [2]: neither detected
AUC3h–15d [3, 17]: 148.40 fmol·days/mg
Cmax [3, 17]: 29.12 fmol/mg
AUC3h–15d [3, 18]: 107.96 fmol·days/mg
Cmax [3, 18]: 24.43 fmol/mg
AUC3h–15d [3, 19]: 176.28 fmol·days/mg
Cmax [3, 19]: 41.93 fmol/mg
AUC3h–15d ([3]; Single gel, Low [ ]: TFV 7 µM): 164.03 fmol·days/mg
Cmax ([3]; Single gel, Low [ ]: TFV 7 µM): 41.47 fmol/mg
persistence of metabolite: still detected post-dose ([3]; colorectal explants): up to 3 days
Cmax fold increase ([4]; NHP vaginal Cmax lower than in colorectal explants): 1.6 fold
AUC3h–15d [4, 17]: 96.03 fmol·days/mg
Cmax [4, 17]: 12.81 fmol/mg
AUC3h–15d [4, 18]: 54.08 fmol·days/mg
Cmax [4, 18]: 7.21 fmol/mg
AUC3h–15d [4, 19]: 134.18 fmol·days/mg
Cmax [4, 19]: 17.89 fmol/mg
AUC3h–15d ([4]; Single gel, Low [ ]: TFV 7 µM): 46.22 fmol·days/mg
Cmax ([4]; Single gel, Low [ ]: TFV 7 µM): 6.16 fmol/mg
persistence of metabolite: detected post-dose ([4]; vaginal tissue): 3 h
AUC3h-15d [5, 17]: 82.53 fmol·days/mg
Cmax [5, 17]: 20.07 fmol/mg
AUC3h-15d [5, 18]: 41.21 fmol·days/mg
Cmax [5, 18]: 8.36 fmol/mg
AUC3h-15d [5, 19]: 98.95 fmol·days/mg
Cmax [5, 19]: 22.41 fmol/mg
AUC3h-15d ([5]; Single gel, Low [ ]: TFV 7 µM): 35.29 fmol·days/mg
Cmax ([5]; Single gel, Low [ ]: TFV 7 µM): 8.36 fmol/mg
difference in TFVdp concentrations between NHP and humans ([5]; colorectal explants): No significant differences

Maraviroc [MVC]
IC50 (RT-SHIV [6]; [20]): 2320 ± 780 nM
p27 AUC3-15 (RT-SHIV [6]; [21]): 2.85 ± 2.01 µgxd/ml
p27 AUC3-15 (RT-SHIV [6]; [22]): 5.25 ± 3.12 µgxd/ml
IC50 (HIV-1YU.2; day 15): 1150 ± 840 nM
p24 AUC3-15 (HIV-1YU.2; [21]): 1.60 ± 0.57 µgxd/ml
p24 AUC3-15 (HIV-1YU.2; [22]): 9.15 ± 5.28 µgxd/ml
IC50 (HIV-1YU.2 M184V; day 15): 1240 ± 1880 nM
p24 AUC3-15 (HIV-1YU.2 M184V; [21]): 0.26 ± 0.13 µgxd/ml
p24 AUC3-15 (HIV-1YU.2 M184V; [22]): 0.70 ± 0.11 µgxd/ml
IC50 (SIVmac32H [7]; NHP cervical explants, day 15): 2740 ± 1180 nM
p27 AUC3-15 (SIVmac32H [7]; [21]): 1.27 ± 0.35 µgxd/ml
p27 AUC3-15 (SIVmac32H [7]; [22]): 1.42 ± 0.44 µgxd/ml
IC50 (SIVmac32H K65RM184V [8]; [20]): 1980 ± 1070 nM
p27 AUC3-15 (SIVmac32H K65RM184V [8]; [21]): 1.33 ± 0.22 µgxd/ml
p27 AUC3-15 (SIVmac32H K65RM184V [8]; [22]): 1.65 ± 0.32 µgxd/ml
IC50 (SIVmac32H [9]; NHP vaginal explants, day 15): 3320 ± 3190 nM
p27 AUC3-15 (SIVmac32H [9]; [21]): 1.26 ± 0.24 µgxd/ml
p27 AUC3-15 (SIVmac32H [9]; [22]): 1.45 ± 0.28 µgxd/ml
IC50 (SIVmac32H [10]; [20]): 1960 ± 1300 nM
p27 AUC3-15 (SIVmac32H [10]; [21]): 2.42 ± 0.53 µgxd/ml
p27 AUC3-15 (SIVmac32H [10]; [22]): 6.12 ± 1.35 µgxd/ml
inhibitory potency against Env-mutated HIV-1YU.2 [11]: no reduction of inhibitory potency
IC50 (SIVmac32H K65RM184V [12]; NHP vaginal explants, day 15): 3310 ± 1680 nM
p27 AUC3-15 (SIVmac32H K65RM184V [12]; [21]): 1.33 ± 0.30 µgxd/ml
p27 AUC3-15 (SIVmac32H K65RM184V [12]; [22]): 1.55 ± 0.28 µgxd/ml
IC50 (HIV-1BaL [13]; day 15): 2850 ± 490 nM
p24 AUC3-15 (HIV-1BaL [13]; [21]): 1.32 ± 0.36 µgxd/ml
p24 AUC3-15 (HIV-1BaL [13]; [22]): 2.61 ± 1.35 µgxd/ml
potency against the mutant isolates (HIV-1/SIV/SHIV isolates): no impact
IC50 (HIV-1YU.2 K65R; day 15): 2770 ± 1120 nM
p24 AUC3-15 (HIV-1YU.2 K65R; [21]): 0.36 ± 0.05 µgxd/ml
p24 AUC3-15 (HIV-1YU.2 K65R; [22]): 0.76 ± 0.10 µgxd/ml
IC50 (HIV-1BaL [14]; day 15): 1260 ± 490 nM
p24 AUC3-15 (HIV-1BaL [14]; [21]): 0.59 ± 0.33 µgxd/ml
p24 AUC3-15 (HIV-1BaL [14]; [22]): 2.68 ± 1.79 µgxd/ml
IC50 (RT-SHIV [15]; NHP vaginal explants, day 15): 2560 ± 1590 nM
p27 AUC3-15 (RT-SHIV [15]; [21]): 1.27 ± 0.28 µgxd/ml
p27 AUC3-15 (RT-SHIV [15]; [22]): 1.54 ± 0.31 µgxd/ml
IC50 (HIV-1YU.2 K65RM184V; day 15): 1430 ± 980 nM
p24 AUC3-15 (HIV-1YU.2 K65RM184V; [21]): 0.82 ± 0.09 µgxd/ml
p24 AUC3-15 (HIV-1YU.2 K65RM184V; [22]): 1.60 ± 0.38 µgxd/ml
IC50 (SIVmac32H K65RM184V [16]; NHP cervical explants, day 15): 4570 ± 2920 nM
p27 AUC3-15 (SIVmac32H K65RM184V [16]; [21]): 1.37 ± 0.30 µgxd/ml
p27 AUC3-15 (SIVmac32H K65RM184V [16]; [22]): 1.62 ± 0.33 µgxd/ml
